Laboratory results taken from patent US20120010161A1, “NOVEL AZAPEPTIDE OR AZAPEPTIDOMIMETIC COMPOUNDS INHIBITING BCRP AND/OR P-GP” (CENTRE NATIONAL DE LA RECHERCHE SCIENTIFIQUE, priority 2009, published 2012).
“Also recorded” adds a separate entry of the source.

How the values were obtained:
P-gp/ABCB1 = molecular target: T1, P-gp/ABCB1 (Homo sapiens, UniProt P08183); assay: Flow cytometry: mitoxantrone efflux induced by ABCB1 in transfected NIH3T3 cells; assay type: cell-based; conditions: for inhibition at 10 μM / inhibition at 2 μM: human, NIH3T3 cells transfected with ABCB1 (vector pHaMDR1/A), probe mitoxantrone (5 μM); for inhibition at 10 μM: 10 μM compound, read-out: P-gp/ABCB1 % efficacy 10 μM; for inhibition at 2 μM: 2 μM compound, read-out: P-gp/ABCB1 % efficacy 2 μM
T1 construct: expressed in transfected cells; host or cells: NIH3T3 transfected with pHaMDR1/A
Text: Cell cultures. The human […] HEK-293 transfected with the vector pcDNA3.1 including or not the gene encoding ABCG2 (Robey, R. W., Honjo, Y., Morisaki, K., Nadjem, T. A., Runge, S., Risbood, M., Poruchynsky, M. S., Bates, S. E. 2003, Br. J. Cancer 89(10) 1971-1978) was used to test the efficacy of the products on ABCG2. The newborn hamster kidney cell line BHK21 either natural (negative control) or transfected with the vector pNUT-MRP/His expressing the gene encoding ABCC1 (Chang, Xiu-Bao, Hou, Yue-Xian, Riordan, John R. 1997, J. Biol. Chem. 272(49) 30962-30968) was used to test the efficacy of the products on ABCC1. The cell line NIH3T3 natural or transfected with the vector pHaMDR1/A expressing ABCB1 (Cardarelli, Carol O., Aksentijevich, Ivan, Pastan, Ira, Gottesman, Michael M. 1995 Cancer Res. 55 1086-1091) was used to test the efficacy of the compounds on ABCB1. The various cell types are cultured according to the protocols described previously (Robey, R. W., Honjo, Y., Morisaki, K., Nadjem, T. A., Runge, S., Risbood, M., Poruchynsky, M. S., Bates, S. E. 2003, Br. J. Cancer 89(10) 1971-1978 for the line HEK293, Chang, Xiu-Bao, Hou, Yue-Xian, Riordan, John R. 1997, J. Biol. Chem. 272(49) 30962-30968 for the line BHK21 and Cardarelli, Carol O., Aksentijevich, Ivan, Pastan, Ira, Gottesman, Michael M. 1995 Cancer Res. 55 1086-1091 for the line NIH3T3).
FIG. 1 schematically illustrates an efflux of substrate induced by a typical ABC transporter. The substrates S, such as mitoxantrone effluxed with ABCG2 and ABCB1 or daunorubicin effluxed with ABCC1, are accumulated in the cells and expelled by the transporter T, leading to a decrease in intracellular fluorescence. In the case of accumulation of the product, typically by inhibition of the efflux protein, the intracellular fluorescence increases.
Flow cytometry. Transfected or untransfected HEK-293 and BHK-21 cells are in a first stage placed in contact with substrate (5 μM mitoxantrone or 1 μM daunorubicin depending on the transporter). The substrate is accumulated for 30 minutes at 37° C. in the presence or absence of varied concentrations of the test molecules, at 0.5% of DMSO final. After washing with PBS, the cells are incubated in medium containing the same concentrations of test molecules as previously, for 1 hour at 37° C. The drug intracellular fluorescence is measured with a FACscan flow cytometer (Becton Dickinson, Mountain View, Calif.). The fluorescent substrates are excited at 488 nm; the fluorescence emission of mitoxantrone (MTX) is measured at 650 nm and that of daunorubicin is measured at 530 nm. The efficacy of the test molecules is estimated by means of equation 1:
% efficacy=100×(FA−FBG)/(FC−FBG),
in which: • FA corresponds to the intracellular level of substrate measured in the cells overexpressing the transporter T (corresponding to the lowest level of fluorescence in the absence of inhibitor), • FC corresponds to the fluorescence in the control cells not expressing the test transporter. This is thus the maximum accumulation of substrate in the cells), • FBG corresponds to the fluorescence measured in the absence of substrate and in the presence of inhibitor.
The compounds presented in TABLES 2 to 5 were tested by flow cytometry on mammalian cell lines selectively expressing the efflux proteins ABCG2, ABCB1 or ABCC1, as described previously.
The mitoxantrone efflux induced by ABCG2 or ABCB1 and the daunorubicin efflux induced by ABCC1 are estimated by flow cytometry, as described previously, at 10 μM of each test compound, and then at 2 μM for the compounds showing at least 80% efficacy at 10 μM. The concentration inducing 50% inhibition (IC50) was estimated for the most efficient aza derivatives. The values are obtained by three independent experiments and were adjusted using the SigmaPlot software.

[1] = system: HEK-293 cells expressing ABCG2; assay: Chemosensitization to mitoxantrone, cell growth test (MTT); assay type: cell-based, human; conditions: 5 μM compound, 72 hours, compared with cells not expressing ABCG2
Procedure: The cells are seeded (10 000 cells/well) in 96-well plates and incubated for 24 hours at 37° C. under 5% CO2. Varied concentrations of mitoxantrone (from 0 to 20 μM in a constant final volume of 100 μL) are then added with an equal volume of each of the test compounds. The cells are then left to divide for 72 hours. The cytotoxicity is evaluated colorimetrically with 3-(4,5-dimethylthiazol-2-yl)-2,5-diphenyltetrazolium bromide (MTT).
Increasing concentrations of mitoxantrone (MTX) are applied to HEK-293 cells expressing or not expressing ABCG2 and subjected or not subjected to a treatment with 5 μM of compound (IA.2), and whose residual vitality is evaluated after 72 hours of treatment by an MIT test. The results are illustrated in FIG. 3, in which the cells expressing ABCG2 are represented by circles, and those not expressing it by squares; those that are treated with 5 μM of (IA.2), i.e. five times its IC50, appear as empty symbols, whereas those that are not treated with (IA.2) appear as solid symbols. […] Compound (IA.2) thus appears to be a very efficient chemosensitizer.
Increasing concentrations of mitoxantrone (MTX) are applied to HEK-293 cells expressing or not expressing ABCG2 and subjected or not subjected to a treatment with 5 μM of compound (IA.1), and whose residual vitality is evaluated after 72 hours of treatment by an MTT test. The results are illustrated in FIG. 5, in which the cells expressing ABCG2 are represented by circles, and those not expressing it by squares; those that are treated with 5 μM of (IA.1), i.e. 2.5 times its IC50, appear as empty symbols, whereas those that are not treated with (IA.1) appear as solid symbols. […]
Increasing concentrations of mitoxantrone (MTX) are applied to HEK-293 cells expressing or not expressing ABCG2 and subjected or not subjected to a treatment with 5 μM of compound (IB.1), and whose residual vitality is evaluated after 72 hours of treatment by an MTT test. […]

T1 sequence (P08183 whole entry): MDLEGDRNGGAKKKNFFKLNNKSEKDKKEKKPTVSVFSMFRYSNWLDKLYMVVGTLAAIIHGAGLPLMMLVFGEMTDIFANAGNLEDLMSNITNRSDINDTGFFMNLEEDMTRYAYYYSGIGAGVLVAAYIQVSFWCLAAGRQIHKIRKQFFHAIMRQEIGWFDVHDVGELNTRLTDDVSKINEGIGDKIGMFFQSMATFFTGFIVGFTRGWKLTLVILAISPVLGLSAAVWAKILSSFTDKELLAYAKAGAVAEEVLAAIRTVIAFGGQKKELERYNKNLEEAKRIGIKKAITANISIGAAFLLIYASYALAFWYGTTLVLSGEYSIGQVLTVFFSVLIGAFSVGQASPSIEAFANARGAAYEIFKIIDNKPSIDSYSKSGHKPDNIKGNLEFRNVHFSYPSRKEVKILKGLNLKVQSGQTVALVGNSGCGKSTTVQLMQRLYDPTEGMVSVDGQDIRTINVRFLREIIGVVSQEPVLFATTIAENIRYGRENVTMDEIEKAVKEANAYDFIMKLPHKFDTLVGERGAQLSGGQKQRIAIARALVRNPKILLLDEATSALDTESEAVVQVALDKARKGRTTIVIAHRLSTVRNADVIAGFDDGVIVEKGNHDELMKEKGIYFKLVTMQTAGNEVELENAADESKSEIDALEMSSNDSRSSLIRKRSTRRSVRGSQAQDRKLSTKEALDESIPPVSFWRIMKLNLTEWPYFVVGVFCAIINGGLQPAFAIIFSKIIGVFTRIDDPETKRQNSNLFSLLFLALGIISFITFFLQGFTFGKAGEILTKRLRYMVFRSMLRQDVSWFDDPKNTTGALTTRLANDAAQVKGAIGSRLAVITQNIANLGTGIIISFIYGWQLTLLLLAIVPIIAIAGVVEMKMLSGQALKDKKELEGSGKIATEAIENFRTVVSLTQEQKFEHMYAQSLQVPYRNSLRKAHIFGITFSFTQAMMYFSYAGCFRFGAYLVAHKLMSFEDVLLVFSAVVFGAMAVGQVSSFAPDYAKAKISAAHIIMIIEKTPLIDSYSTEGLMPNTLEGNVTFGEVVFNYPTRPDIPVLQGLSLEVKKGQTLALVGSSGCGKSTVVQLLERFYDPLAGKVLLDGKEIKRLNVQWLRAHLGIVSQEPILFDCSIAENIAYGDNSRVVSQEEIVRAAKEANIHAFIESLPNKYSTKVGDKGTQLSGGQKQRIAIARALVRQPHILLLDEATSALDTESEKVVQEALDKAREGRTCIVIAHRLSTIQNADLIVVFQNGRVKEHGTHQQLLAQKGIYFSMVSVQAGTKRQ

In the case of `CC(C)(C)OC(=O)NN(C(=O)N[C@@H](CCCCNC(=O)OCc1ccccc1)C(=O)OC(C)(C)C)c1cccc(C(=O)OCc2ccccc2)c1` [IA.2, tert-Butyl ester of (2S)-6-(benzyloxycarbonylamino)-2-[1-(3′-(benzyloxycarbonyl)phenyl)-2-(tert-butoxycarbonyl)hydrazino-carbonylamino]hexanoic acid], the inhibition at 10 μM (P-gp/ABCB1) is reported as < 50% and the “chemosensitization: restoration of mitoxantrone sensitivity” value (from here on “chemosensitization: restoration”) [1] is reported as “chemosensitization; also recorded: restores mitoxantrone sensitivity equal to that observed in the control cells”.

For `CC(C)(C)OC(=O)N[C@H](CNN(CCCCCCNC(=O)OCc1ccccc1)C(=O)OC(C)(C)C)CC(=O)OCc1ccccc1` [IB.1, Benzyl ester of (3S)-4-[2-(6-benzyloxycarbonylaminohexyl)-2-tert-butoxycarbonylhydrazino]-3-tert-butoxycarbonylaminobutyric acid], the IC50 (P-gp/ABCB1) was 1000 nM, the “P-gp/ABCB1 IC50, μM” value (P-gp/ABCB1) was “micromolar or submicromolar” and the inhibition at 2 μM (P-gp/ABCB1) was 70 ± 20%. The inhibition at 10 μM (P-gp/ABCB1) was 63 ± 5% and the “chemosensitization: restoration” value [1] was “chemosensitization; also recorded: virtually full restoration of mitoxantrone sensitivity”.

With `CC(C)(C)OC(=O)NN(C(=O)N[C@@H](CCCCNC(=O)OCc1ccccc1)C(=O)OC(C)(C)C)c1ccccc1C(=O)OCc1ccccc1` [IA.1, tert-Butyl ester of (2S)-6-(benzyloxycarbonylamino)-2-[1-(2′-(benzyloxycarbonyl)phenyl)-2-(tert-butoxycarbonyl)hydrazino-carbonylamino]hexanoic acid] the IC50 (P-gp/ABCB1) was ≤ 500 nM, the inhibition at 2 μM (P-gp/ABCB1) was 70 ± 10% and the inhibition at 10 μM (P-gp/ABCB1) was 74 ± 1%. The “chemosensitization: restoration” value [1] was “chemosensitization; also recorded: restores virtually full mitoxantrone sensitivity”.

In the case of `CC(C)(C)OC(=O)N[C@H](CNN(CCCCCCNC(=O)OCc1ccccc1)C(=O)OCc1ccccc1)CC(=O)OCc1ccccc1` [IB.11, Benzyl ester of (3S)-4-[2-benzyloxycarbonyl-2-(6-benzyloxycarbonylaminohexyl)hydrazino]-3-tert-butoxycarbonyl-aminobutyric acid], the IC50 (P-gp/ABCB1) is reported as 700 ± 100 nM and the “P-gp/ABCB1 IC50, μM” value (P-gp/ABCB1) is reported as “micromolar or submicromolar”.
